Results on 23 molecules are retold here after PubChem BioAssay AID330 (DTP/NCI, 2004).

The structures appear in SMILES notation. Values joined by “and” are separate entries in the source; they are usually repeats but may differ in a detail not shown here. Equal entries are not always repeated. Inconclusive results and toxic doses are left out.

The test system of the experiment is P388 leukemia ip, CD2F1 mice, survival T/C. The experiment is described as follows: NCI In Vivo Anticancer Drug Screen. Data for tumor model P388 Leukemia (intraperitoneal) in CD2F1 (CDF1) mice. The following applies: endpoint: median survival time, higher = longer survival. Put shortly: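 Mice carrying the transplanted tumor received test compound or vehicle. Survival was recorded in each group, and the value is the treated-group measurement divided by that of the vehicle-treated control group.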

Where [1] appears, read: dose: 100.0 mg/kg/injection, schedule: Q04DX003 (ip), vehicle: saline with Tween-80.
Where [2] appears, read: dose: 200.0 mg/kg/injection, schedule: Q04DX003 (ip), vehicle: saline with Tween-80.
Setting [3] is: dose: 12.5 mg/kg/injection, schedule: Q01DX009 (ip), vehicle: saline.
The mark [4] stands for this setting: dose: 25.0 mg/kg/injection, schedule: Q01DX009 (ip), vehicle: saline.
Setting [5] is: dose: 50.0 mg/kg/injection, schedule: Q01DX009 (ip), vehicle: saline.
Setting [6] is: dose: 50.0 mg/kg/injection, schedule: Q01DX009 (ip), vehicle: saline with Tween-80.
The mark [7] stands for this setting: dose: 100.0 mg/kg/injection, schedule: Q01DX009 (ip), vehicle: saline with Tween-80.
Setting [8] is: dose: 200.0 mg/kg/injection, schedule: Q01DX009 (ip), vehicle: saline with Tween-80.
The mark [9] stands for this setting: dose: 60.0 mg/kg/injection, schedule: Q01DX005 (ip), vehicle: saline with Tween-80.
[10] abbreviates: dose: 120.0 mg/kg/injection, schedule: Q01DX005 (ip), vehicle: saline with Tween-80.
Setting [11] is: dose: 240.0 mg/kg/injection, schedule: Q01DX005 (ip), vehicle: saline with Tween-80.
The mark [12] stands for this setting: dose: 200.0 mg/kg/injection, schedule: Q01DX005 (ip), vehicle: saline with Tween-80.
Where [13] appears, read: dose: 50.0 mg/kg/injection, schedule: Q01DX005 (ip), vehicle: saline with Tween-80.
Where [14] appears, read: dose: 100.0 mg/kg/injection, schedule: Q01DX005 (ip), vehicle: saline with Tween-80.

Regarding `COc1ccc2c(CSCCO)cc(=O)oc2c1`, the T/C was 97 % of control (dose: 50.0 mg/kg/injection, schedule: Q04DX003 (ip), vehicle: suspension in saline); 100 % of control (dose: 100.0 mg/kg/injection, schedule: Q04DX003 (ip), vehicle: suspension in saline); 98 % of control (dose: 200.0 mg/kg/injection, schedule: Q04DX003 (ip), vehicle: suspension in saline).
With `Cc1ccc(C(F)(F)F)cc1N(O)C(C)(C)C`, the T/C was 95 % of control (dose: 50.0 mg/kg/injection, schedule: Q04DX003 (ip), vehicle: saline with Tween-80); 101 % of control under setting [1]; 118 % of control under setting [2].
`Cc1ccc(N2C(=O)C(C)SC2=S)cc1Cl` (stereo unspecified): the T/C under setting [3] was 100 % of control; the T/C under setting [4] was 100 % of control; the T/C under setting [5] was 101 % of control and 103 % of control; the T/C (dose: 200.0 mg/kg/injection, schedule: Q01DX009 (ip), vehicle: saline) is 91 % of control.
As to `Cc1c(N(C)C)nc2cc(N(C)C)ccc2c1Cl`, the T/C by setting is: under setting [6], 91 % of control; under setting [7], 92 % of control; under setting [8], 91 % of control.
For `CCCN(CCC)c1nc2ccc(NC(=O)OCC)cc2s1`, the T/C is, setting by setting: under setting [3], 95 % of control; under setting [4], 100 % of control; under setting [6], 101 % of control; under setting [5], 100 % of control.
Take `O=C(c1ccccc1)C(O)NC(=S)c1cccnc1` (stereo unspecified): the T/C reads like this: under setting [6], 106 % of control; under setting [7], 107 % of control; under setting [8], 116 % of control.
Taken in the same sequence, the figures for `COc1ccc([Si](C)(C)CNCCSS(=O)(=O)O)cc1` were 90 % of control, 95 % of control and 90 % of control.
Take `O=c1ccnc(Sc2ncccc2[N+](=O)[O-])[nH]1`: the T/C reads like this: under setting [1], 100 % of control; under setting [2], 100 % of control; (dose: 400.0 mg/kg/injection, schedule: Q04DX003 (ip), vehicle: saline with Tween-80) 100 % of control.
For `C[n+]1c(-c2ccc(/C=N/NC(=O)c3cc(O)c(C(=O)N/N=C/c4ccc(-c5cn6ccccc6[n+]5C)cc4)cc3O)cc2)cn2ccccc21`, the T/C runs as follows: under setting [9], 105 % of control; under setting [10], 105 % of control.
In the case of `CC1=NN(C(=O)CC(=O)Nc2ccc(C(=O)O)cc2)C(=O)C1N=Nc1ccc(I)cc1` (stereo unspecified), the T/C was 96 % of control (dose: 100.0 mg/kg/injection, schedule: Q04DX002 (ip), vehicle: saline with Tween-80); 98 % of control (dose: 200.0 mg/kg/injection, schedule: Q04DX002 (ip), vehicle: saline with Tween-80); 120 % of control (dose: 400.0 mg/kg/injection, schedule: Q04DX002 (ip), vehicle: saline with Tween-80).
`O=C(c1ccccc1)C1(c2ccccc2)CCCCC1`: the T/C runs as follows: under setting [9], 94 % of control; under setting [10], 94 % of control; under setting [11], 86 % of control.
As for `O=c1[nH]c2cc(Cl)ccc2nc1/C=C(\O)c1cccc(O)c1`, the T/C runs as follows: (dose: 15.0 mg/kg/injection, schedule: Q01DX005 (ip), vehicle: Klucel + Tween-80) 106 % of control; (dose: 30.0 mg/kg/injection, schedule: Q01DX005 (ip), vehicle: Klucel + Tween-80) 94 % of control; (dose: 60.0 mg/kg/injection, schedule: Q01DX005 (ip), vehicle: Klucel + Tween-80) 101 % of control and 88 % of control.
Regarding `C=CC(=O)N1CN(C(=O)C=C)CN(C(=O)C=C)C1`, the T/C was 100 % of control (dose: 6.25 mg/kg/injection, schedule: Q01DX009 (ip), vehicle: saline with Tween-80) and 158 % of control (dose: 12.5 mg/kg/injection, schedule: Q01DX009 (ip), vehicle: saline with Tween-80).
In the case of `NC(=S)c1ncn(C2OC(COC=O)C(OC=O)C2OC=O)c1NC=O` (stereo unspecified), the T/C reads like this: (dose: 25.0 mg/kg/injection, schedule: Q01DX005 (ip), vehicle: Klucel (hydroxypropylcellulose) (HPC)) 110 % of control; (dose: 50.0 mg/kg/injection, schedule: Q01DX005 (ip), vehicle: Klucel (hydroxypropylcellulose) (HPC)) 108 % of control; (dose: 100.0 mg/kg/injection, schedule: Q01DX005 (ip), vehicle: Klucel (hydroxypropylcellulose) (HPC)) 113 % of control; (dose: 200.0 mg/kg/injection, schedule: Q01DX005 (ip), vehicle: Klucel (hydroxypropylcellulose) (HPC)) 120 % of control; under setting [12], 114 % of control; (dose: 400.0 mg/kg/injection, schedule: Q01DX005 (ip), vehicle: Klucel (hydroxypropylcellulose) (HPC)) 100 % of control. Also, the T/C (dose: 400.0 mg/kg/injection, schedule: Q01DX005 (ip), vehicle: saline with Tween-80) was 97 % of control.
`OCCCCP12(OC(C(F)(F)F)(C(F)(F)F)c3ccccc31)OC(C(F)(F)F)(C(F)(F)F)c1ccccc12`: the T/C by setting is: (dose: 50.0 mg/kg/injection, schedule: Q01DX009 (ip), vehicle: Klucel (hydroxypropylcellulose) (HPC)) 102 % of control; (dose: 100.0 mg/kg/injection, schedule: Q01DX009 (ip), vehicle: Klucel (hydroxypropylcellulose) (HPC)) 100 % of control; (dose: 200.0 mg/kg/injection, schedule: Q01DX009 (ip), vehicle: Klucel (hydroxypropylcellulose) (HPC)) 102 % of control.
As for `CCC1=CCCN(Cc2ccccc2)C1C#N` (stereo unspecified), the T/C runs as follows: (dose: 7.5 mg/kg/injection, schedule: Q01DX005 (ip), vehicle: Klucel (hydroxypropylcellulose) (HPC)) 106 % of control; (dose: 15.0 mg/kg/injection, schedule: Q01DX005 (ip), vehicle: Klucel (hydroxypropylcellulose) (HPC)) 111 % of control; (dose: 30.0 mg/kg/injection, schedule: Q01DX005 (ip), vehicle: Klucel (hydroxypropylcellulose) (HPC)) 118 % of control.
For the molecule `S=c1sc2ccccc2n1CN1CCOCC1`, the T/C runs as follows: (dose: 25.0 mg/kg/injection, schedule: Q01DX005 (ip), vehicle: saline with Tween-80) 107 % of control; under setting [13], 104 % of control and 114 % of control; under setting [14], 121 % of control and 124 % of control.
For `COc1cc(NCCCN=C(N)N)c2ncccc2c1`, the T/C (dose: 1.56 mg/kg/injection, schedule: Q01DX005 (ip), vehicle: saline with Tween-80) is 99 % of control; the T/C (dose: 3.13 mg/kg/injection, schedule: Q01DX005 (ip), vehicle: saline with Tween-80) is 98 % of control; the T/C (dose: 6.25 mg/kg/injection, schedule: Q01DX005 (ip), vehicle: saline with Tween-80) was 102 % of control and 92 % of control.
`CCOP(=O)(/C=C1/C(=O)OCC1(C)C)OCC`: the T/C by setting is: (dose: 100.0 mg/kg/injection, schedule: Q04DX003 (ip), vehicle: saline) 100 % of control; (dose: 200.0 mg/kg/injection, schedule: Q04DX003 (ip), vehicle: saline) 101 % of control; (dose: 400.0 mg/kg/injection, schedule: Q04DX003 (ip), vehicle: saline) 104 % of control.
As to `CS/C(=C(\C#N)C(N)=O)N1CC1`, the T/C by setting is: (dose: 25.0 mg/kg/injection, schedule: Q04DX002 (ip), vehicle: DMSO) 94 % of control; (dose: 50.0 mg/kg/injection, schedule: Q04DX002 (ip), vehicle: DMSO) 100 % of control; (dose: 100.0 mg/kg/injection, schedule: Q04DX002 (ip), vehicle: DMSO) 102 % of control and 95 % of control; (dose: 200.0 mg/kg/injection, schedule: Q04DX002 (ip), vehicle: DMSO) 100 % of control.
`O=C(/C(=C\c1ccc(F)cc1)S(=O)(=O)c1ccc(F)cc1)c1ccccc1`: the T/C is, setting by setting: under setting [13], 110 % of control; under setting [14], 102 % of control; under setting [12], 103 % of control.
As for `NS(=O)(=O)c1ccc(NC(=O)C2C(=O)N(c3ccc(S(N)(=O)=O)cc3)C(=O)/C2=N/O)cc1` (stereo unspecified), the T/C reads like this: under setting [9], 111 % of control; under setting [10], 110 % of control; under setting [11], 101 % of control.
Consider `CC1OC(OCc2ccc(-c3ccccc3)cc2)CC(N)C1O` (stereo unspecified), for which the T/C reads like this: (dose: 1.56 mg/kg/injection, schedule: Q01DX009 (ip), vehicle: water) 99 % of control; (dose: 3.13 mg/kg/injection, schedule: Q01DX009 (ip), vehicle: water) 104 % of control; (dose: 6.25 mg/kg/injection, schedule: Q01DX009 (ip), vehicle: water) 107 % of control; (dose: 12.5 mg/kg/injection, schedule: Q01DX009 (ip), vehicle: water) 108 % of control; (dose: 25.0 mg/kg/injection, schedule: Q01DX009 (ip), vehicle: water) 98 % of control.
